Values after ≈ are worked out from the molar mass of the structure shown. Peptide text beside a SMILES is read from it.
Key:
Type in all cases: functional
[1] = test system: Nakaseomyces glabratus; assay: Antifungal activity against Candida glabrata after 48 hrs by broth microdilution
[2] = test system: Pichia kudriavzevii; assay: Antifungal activity against Candida krusei after 48 hrs by broth microdilution
[3] = test system: Candida parapsilosis; assay: Antifungal activity against Candida parapsilosis after 48 hrs by broth microdilution
[4] = test system: Candida tropicalis; assay: Antifungal activity against Candida tropicalis after 48 hrs by broth microdilution
[5] = test system: Aspergillus sp.; assay: Antifungal activity against Aspergillus sp. after 48 hrs by broth microdilution
[6] = test system: Curvularia; assay: Antifungal activity against Curvularia species after 48 hrs by broth microdilution
[7] = test system: Fusarium sp.; assay: Antifungal activity against Fusarium sp. after 48 hrs by broth microdilution
[8] = test system: Paecilomyces variotii; assay: Antifungal activity against Paecilomyces variotii after 48 hrs by broth microdilution
[9] = test system: Talaromyces marneffei; assay: Antifungal activity against Penicillium marneffei after 48 hrs by broth microdilution
[10] = test system: Penicillium sp.; assay: Antifungal activity against Penicillium sp. after 48 hrs by broth microdilution
[11] = test system: Candida albicans; assay: Antifungal activity against Candida albicans assessed as susceptible isolates after 48 hrs by broth microdilution
[12] = test system: Nakaseomyces glabratus; assay: Antifungal activity against Candida glabrata assessed as susceptible isolates after 48 hrs by broth microdilution
[13] = test system: Pichia kudriavzevii; assay: Antifungal activity against Candida krusei assessed as susceptible isolates after 48 hrs by broth microdilution
[14] = test system: Candida parapsilosis; assay: Antifungal activity against Candida parapsilosis assessed as susceptible isolates after 48 hrs by broth microdilution
[15] = test system: Candida tropicalis; assay: Antifungal activity against Candida tropicalis assessed as susceptible isolates after 48 hrs by broth microdilution
[16] = test system: Candida albicans; assay: Antifungal activity against Candida albicans assessed as resistant isolates after 48 hrs by broth microdilution
[17] = test system: Nakaseomyces glabratus; assay: Antifungal activity against Candida glabrata assessed as resistant isolates after 48 hrs by broth microdilution
[18] = test system: Pichia kudriavzevii; assay: Antifungal activity against Candida krusei assessed as resistant isolates after 48 hrs by broth microdilution
[19] = test system: Candida parapsilosis; assay: Antifungal activity against Candida parapsilosis assessed as resistant isolates after 48 hrs by broth microdilution
[20] = test system: Candida tropicalis; assay: Antifungal activity against Candida tropicalis assessed as resistant isolates after 48 hrs by broth microdilution
[21] = test system: Candida albicans; assay: Antifungal activity against Candida albicans after 48 hrs by broth microdilution

| Compound | MIC50 [1] [µg/mL] | MIC90 [1] [µg/mL] | MIC50 [2] [µg/mL] | MIC90 [2] [µg/mL] | MIC50 [4] [µg/mL] | MIC90 [4] [µg/mL] | MIC50 [5] [µg/mL] | MIC90 [5] [µg/mL] | MIC50 [6] [µg/mL] | MIC90 [6] [µg/mL] | MIC50 [7] [µg/mL] | MIC90 [7] [µg/mL] | MIC50 [8] [µg/mL] | MIC90 [8] [µg/mL] | MIC50 [9] [µg/mL] | MIC90 [9] [µg/mL] | MIC50 [10] [µg/mL] | MIC90 [10] [µg/mL] | MIC50 [21] [µg/mL] | MIC90 [21] [µg/mL] | also measured |
| --- | --- | --- | --- | --- | --- | --- | --- | --- | --- | --- | --- | --- | --- | --- | --- | --- | --- | --- | --- | --- | --- |
| OC(Cn1cncn1)(Cn1cncn1)c1ccc(F)cc1F [FLUCONAZOLE] | 4 (≈ 13.1 µM) | > 64 | 32 (≈ 104 µM) | 64 (≈ 209 µM) | 0.25 (≈ 0.816 µM) | > 64 | > 64 | > 64 | > 64 | > 64 | > 64 | > 64 | > 64 | > 64 | > 64 | > 64 | > 64 | > 64 | 1 (≈ 3.27 µM) | > 64 | MIC [2]: 32 µg/mL (≈ 104 µM); MIC ([3]; Lodderomyces parapsilosis): 0.5 µg/mL (≈ 1.63 µM); MIC50 ([3]; Lodderomyces parapsilosis): 0.5 µg/mL (≈ 1.63 µM); MIC90 ([3]; Lodderomyces parapsilosis): 16 µg/mL (≈ 52.2 µM); Activity [11]: 67.3%; Activity [12]: 77.3%; Activity [13]: 0%; Activity [14]: 81.8%; Activity [15]: 81.8%; Activity [16]: 30.8%; Activity [17]: 18.2%; Activity [18]: 100%; Activity [19]: 0%; Activity [20]: 18.2% |
| C[C@@H]1[C@H](O)[C@@H](C)/C=C/C=C/C=C/C=C/C=C/C=C/C=C/[C@H](O[C@@H]2O[C@H](C)[C@@H](O)[C@H](N)[C@@H]2O)C[C@@H]2O[C@](O)(C[C@@H](O)C[C@@H](O)[C@H](O)CC[C@@H](O)C[C@@H](O)CC(=O)O[C@H]1C)C[C@H](O)[C@H]2C(=O)O [AMPHOTERICIN B] | 1 (≈ 1.08 µM) | 1 (≈ 1.08 µM) | 1 (≈ 1.08 µM) | 2 (≈ 2.16 µM) | 1 (≈ 1.08 µM) | 1 (≈ 1.08 µM) | 0.5 (≈ 0.541 µM) | 1 (≈ 1.08 µM) | 0.25 (≈ 0.271 µM) | 0.5 (≈ 0.541 µM) | 0.25 (≈ 0.271 µM) | 0.5 (≈ 0.541 µM) | 0.25 (≈ 0.271 µM) | 0.5 (≈ 0.541 µM) | 0.25 (≈ 0.271 µM) | 0.5 (≈ 0.541 µM) | 0.25 (≈ 0.271 µM) | 0.5 (≈ 0.541 µM) | 1 (≈ 1.08 µM) | 1 (≈ 1.08 µM) | MIC ([3]; Lodderomyces parapsilosis): 1 µg/mL (≈ 1.08 µM); MIC50 ([3]; Lodderomyces parapsilosis): 1 µg/mL (≈ 1.08 µM); MIC90 ([3]; Lodderomyces parapsilosis): 1 µg/mL (≈ 1.08 µM) |
| C[C@@H](c1ncncc1F)[C@](O)(Cn1cncn1)c1ccc(F)cc1F [VORICONAZOLE] | 0.06 (≈ 0.172 µM) | 2 (≈ 5.73 µM) | 0.25 (≈ 0.716 µM) | 0.5 (≈ 1.43 µM) | 0.015 (≈ 0.0429 µM) | 16 (≈ 45.8 µM) | 0.25 (≈ 0.716 µM) | 0.25 (≈ 0.716 µM) | 0.25 (≈ 0.716 µM) | 2 (≈ 5.73 µM) | 0.25 (≈ 0.716 µM) | 2 (≈ 5.73 µM) | 0.25 (≈ 0.716 µM) | 2 (≈ 5.73 µM) | 0.25 (≈ 0.716 µM) | 2 (≈ 5.73 µM) | 0.25 (≈ 0.716 µM) | 2 (≈ 5.73 µM) | 0.03 (≈ 0.0859 µM) | > 16 | MIC50 ([3]; Lodderomyces parapsilosis): 0.015 µg/mL (≈ 0.0429 µM); MIC90 ([3]; Lodderomyces parapsilosis): 0.12 µg/mL (≈ 0.344 µM); MIC [4]: 0.015 µg/mL (≈ 0.0429 µM); Activity [11]: 75%; Activity [12]: 86.4%; Activity [13]: 100%; Activity [14]: 100%; Activity [15]: 72.7%; Activity [16]: 25%; Activity [17]: 0%; Activity [18]: 0%; Activity [19]: 0%; Activity [20]: 27.3% |
| CCC(C)n1ncn(-c2ccc(N3CCN(c4ccc(OCC5COC(Cn6cncn6)(c6ccc(Cl)cc6Cl)O5)cc4)CC3)cc2)c1=O (centres undefined) [ITRACONAZOLE] | 0.12 (≈ 0.17 µM) | 0.5 (≈ 0.709 µM) | 0.5 (≈ 0.709 µM) | 0.5 (≈ 0.709 µM) | 0.03 (≈ 0.0425 µM) | 0.12 (≈ 0.17 µM) | 0.03 (≈ 0.0425 µM) | 0.06 (≈ 0.085 µM) | 0.06 (≈ 0.085 µM) | > 16 | 0.06 (≈ 0.085 µM) | > 16 | 0.06 (≈ 0.085 µM) | > 16 | 0.06 (≈ 0.085 µM) | > 16 | 0.06 (≈ 0.085 µM) | > 16 | 0.12 (≈ 0.17 µM) | 16 (≈ 22.7 µM) | MIC50 ([3]; Lodderomyces parapsilosis): 0.06 µg/mL (≈ 0.085 µM); MIC90 ([3]; Lodderomyces parapsilosis): 0.25 µg/mL (≈ 0.354 µM); Activity [11]: 50%; Activity [12]: 72.7%; Activity [13]: 10%; Activity [14]: 63.6%; Activity [15]: 100%; Activity [16]: 48.1%; Activity [17]: 4.6%; Activity [18]: 0%; Activity [19]: 0%; Activity [20]: 0% |
| CC[C@H](C)[C@H](N)C(=O)N[C@@H](CC(C)C)C(=O)N[C@@H](CCCNC(=N)N)C(=O)N[C@@H](Cc1c[nH]c2ccccc12)C(=O)N1CCC[C@H]1C(=O)N[C@@H](Cc1c[nH]c2ccccc12)C(=O)N[C@@H](Cc1c[nH]c2ccccc12)C(=O)N1CCC[C@H]1C(=O)N[C@@H](Cc1c[nH]c2ccccc12)C(=O)N[C@@H](CCCNC(=N)N)C(=O)N[C@@H](CCCNC(=N)N)C(=O)N[C@@H](CCCCN)C(N)=O.Cl.Cl.Cl.Cl.Cl [OMIGANAN PENTAHYDROCHLORIDE] (H-ILRWPWWPWRRK-NH2) | 256 | 256 | 64 | 128 | 32 | 32 | 128 | 1020 | 64 | 256 | 64 | 256 | 64 | 256 | 64 | 256 | 64 | 256 | 64 | 128 | MIC50 ([3]; Lodderomyces parapsilosis): 128 µg/mL; MIC90 ([3]; Lodderomyces parapsilosis): 256 µg/mL |
| NYSTATIN | 8 | 8 | 8 | 8 | 8 | 8 | 16 | 16 | 8 | 16 | 8 | 16 | 8 | 16 | 8 | 16 | 8 | 16 | 8 | 8 | MIC50 [3]: 8 µg/mL; MIC90 [3]: 8 µg/mL |
| Nc1nc(=O)[nH]cc1F [FLUCYTOSINE] | 0.06 (≈ 0.465 µM) | 0.06 (≈ 0.465 µM) | 16 (≈ 124 µM) | 32 (≈ 248 µM) | 0.06 (≈ 0.465 µM) | 0.12 (≈ 0.93 µM) | > 64 | > 64 | > 64 | > 64 | > 64 | > 64 | > 64 | > 64 | > 64 | > 64 | > 64 | > 64 | 0.12 (≈ 0.93 µM) | 1 (≈ 7.75 µM) | MIC50 ([3]; Lodderomyces parapsilosis): 0.12 µg/mL (≈ 0.93 µM); MIC90 ([3]; Lodderomyces parapsilosis): 0.12 µg/mL (≈ 0.93 µM); MIC [4]: 0.06 µg/mL (≈ 0.465 µM); Activity [11]: 100%; Activity [12]: 100%; Activity [13]: 0%; Activity [14]: 100%; Activity [15]: 100%; Activity [16]: 0%; Activity [17]: 0%; Activity [18]: 30%; Activity [19]: 0%; Activity [20]: 0% |

— ChEMBL document CHEMBL1255262, “Antimicrobial activity of omiganan pentahydrochloride against contemporary fungal pathogens responsible for catheter-associated infections” (2008)
